In one test the test system is E. coli 70S ribosomes. In words: Kinetic peptidyl transfer (puromycin) assay on E. coli 70S ribosomes. It is filed as biochemical. The note with it: for Ki: n = 2. Here is the method:
The effects of GRn or PRn on peptide bond formation in E. coli ribosome were tested in an in vitro assay that reacts the 70S ribosome loaded with [^35S]-fMet-tRNA^fMet in the P-site with puromycin, an A-site tRNA mimic, and measures the release of the resulting dipeptide containing formyl-methionine covalently bonded to puromycin, as described. E. coli tRNA^fMet (Chemical Block) was aminoacylated with [^35S]-N-formyl-L-methionine (Perkin Elmer) as described. 70S ribosomes were prepared from E. coli (MRE600) as described. 70S ribosomes were stored in the ribosome-storage buffer (20 mM Tris-HCl, pH 7.0; 100 mM NH4Cl; 20 mM MgCl2) at –80 °C. A model mRNA fragment, containing the Shine-Dalgarno sequence and a spacer to position the AUG codon in the P-site and the UUC codon in the A site (GGCAAGGAGGUAAAAAUGUUC AAAAAA), was synthesized by IDT. 70S•mRNA•fMet-tRNA^fMet complexes with GRn (where n = 4, 10 or 20) or PRn (where n = 4, 10, 20 or 40) were formed as follows. 330 nM 70S ribosomes were incubated with 11 µM mRNA in buffer containing 20 mM Tris-acetate (pH 7.0), 100 mM NH4OAc, 12 mM Mg(OAc)2, for 2 min at 37 °C. 730 nM [^35S]-fMet-tRNA^fMet was added and incubated for 5 min at 37 °C. The solution was diluted 9.6-fold with the same buffer, followed by addition of a GRn or PRn repeat peptide (22x relative to its final concentration). The complex was incubated for 5 min at 37 °C prior to addition of puromycin dissolved in the same buffer (see below).
(§1) The kinetics of puromycin reaction on the 70S or 80S ribosomes were recorded and analyzed essentially as described. An aliquot (4.5 μl) of the complex prior to addition of puromycin was quenched in 30 μl of saturated MgSO4 in 0.1 M NaOAc to represent the zero-time point. Five microliters of 500 µM puromycin (in the same buffer as that used for the ribosomal complex) was added to 45 μl of the complex to initiate the reaction, yielding estimated final concentrations: 30 nM for the ribosome, 1 µM mRNA, 66 nM [^35S]-fMet-tRNA^fMet, 50 µM puromycin, and varying concentrations of PRn and GRn peptides, from 30 nM to 2 μM. After 6, 15, 30, 90 s, and 5, 15, 30, 60, and (for slower reactions) 180 min, 5-μl aliquots were quenched in 30 μl of saturated MgSO4 in 0.1 M NaOAc. All quenched samples were extracted with 700 μl ethyl-acetate. 600 μl of the extract were mixed with 3.5 ml of Econo-Safe scintillation cocktail (RPI), and the amount of released [^35S]-labeled dipeptide was measured for each time point using a scintillation counter (Beckman Coulter, Inc.).
(§2) All time progress curves were recorded in duplicates, using independently prepared 70S or 80S complexes. Reaction rates were calculated using single-exponential or double-exponential (80S complexes) regressions for different concentrations of PRn and GRn using GraphPad Prism 8. Hyperbola fitting in Gnuplot was used to derive apparent Ki-values.

In a further test the test system is rabbit 80S ribosomes. The experiment in a line: Kinetic peptidyl transfer (puromycin) assay on rabbit 80S ribosomes. It is filed as biochemical.
Description: To test the effects of PR20 on the mammalian peptidyl transferase, 80S ribosomes were purified from rabbit reticulocyte lysate (Green Hectares) and dissociated into 40S and 60S subunits as described in the section entitled “Cryo-EM complex of mammalian 80S ribosome with PR20”. A model leaderless mRNA fragment placing the AUG codon in the P-site and the UUC codon in the A site (CCAC AUG UUC CCCCCCCCCCCCCCCCCC), was synthesized by IDT. The 80S•mRNA•fMet-tRNA^fMet complex with PRn (where n = 10, 20, or 40) or GR20 was assembled as follows. one micrometer 60S subunit was mixed with the DPR (starting with the initial DPR concentration of 33x relative to its final concentration in the reaction) in Assembly Buffer containing 20 mM Tris-acetate (pH 7.0), 100 mM KOAc, 10 mM Mg(OAc)2, and the mixture was incubated for 5 min at 30 °C. […] 1095 nM [^35S]-fMet-tRNA^fMet and the 60S solution were added (0.5 volumes of the 40S solution), resulting in the following concentrations: 330 nM 60S, 400 nM 40S, 730 nM tRNA, 11 µM mRNA and 11x of final concentration of a DPR in the buffer (20 mM Tris-acetate (pH 7.0), 100 mM KOAc, 10 mM Mg(OAc)2). The solution was incubated for 5 min at 30 °C. The solution was diluted ten times with the same buffer, then puromycin (prepared in the same buffer) was added and time progress curves were recorded.
as §1, §2

Test [1] deals with translation of nanoluciferase mRNA in rabbit reticulocyte lysates. The experiment in a line: Nanoluciferase mRNA translation in rabbit reticulocyte lysate, inhibitor preincubated 5 min before mRNA. The format is biochemical. The note with it: for IC50: same extracts as the DPR assay, read-out: IC50 in RRL extracts, range stated in the response to reviewers. The source says: Rabbit reticulocyte lysates (RRL, Promega) were used to investigate the inhibition of translation by DPR proteins. We independently monitored translation of two mRNAs encoding non-homologous proteins of different lengths: nanoluciferase[71] and firefly luciferase. To measure the IC50s of the translational inhibitors cycloheximide (Akros Organics), harringtonine (AbCam), GDPCP (Jena Biosciences), PR20 and GR20, we monitored the translation of nanoluciferase mRNA in nuclease-treated RRL (Promega). […] Next, 10 ng/μl (final concentration) 6xhis-Nanoluciferase mRNA flanked with the 5'- and 3'-UTR from rabbit beta-globin[48] was added and the luminescence reactions were continuously measured by an Infinite m1000 pro microplate reader (Tecan) for 15 min at 30 °C. The 1st derivative of the luminescence reactions was determined in Prism 8 (GraphPad Software, LLC) and the maximum was identified and the mean of three maximums from independent experiments for each inhibitor was taken as the rate. The rates were plotted versus inhibitors concentration, and the plots were fitted in Prism 8 (GraphPad Software, LLC) to a 3-parameter inhibition model (Y = baseline + (max-baseline)/(1 + X/IC50)) to obtain the IC50 values where the baseline was constrained to 0. This procedure was modified to separate translation initiation from translation elongation by changing the time of addition of the inhibitors to ~300 s after mRNA addition when RLUs had reached a value of ~50,000. Here, the maximum of the first derivative was taken in the 2nd or later measurement taken after inhibitor addition.
The following additional controls indicate that DPR-induced changes in fluorescence were caused by translation inhibition.

Test [2] concerns ribosomes on endogenous beta-globin mRNA in RRL. In words: Toeprinting of 80S and 4-5-mer polysome fractions on beta-globin mRNA. The format is biochemical, rabbit. The note with it: for Ratio (START to CDS) / Normalized ratio START/ORF: 80S fraction, primer A, Fig. 2f independent repeat; for Normalized ratio START/ORF: no inhibitor = 1; for normalized ratio START to CDS, MEAN: 4-5-mer, primer B, mean of ten 20 bp windows. As to the method: Toeprinting analyses were carried out similarly to those in refs. [51],[74], using 80S and polysome (4–5-some) fractions collected from polysome profiles as described in “Polysome Profiles” except that reactions were doubled in size (200 μL), performed at 37 °C, and were stopped with ice-cold 1xAMV Buffer (50 mM Tris-HCl pH 8.3, 50 mM KCl, 5 mM MgCl2) with 200 μg/ml cycloheximide before being separated on at 10–35% sucrose gradient in 1xAMV buffer with 0.5 mM spermidine and 1 mM DTT. 600 μl of each fraction (80S or 4–5-mer) was supplemented with 10 mM DTT. Then 10 U of AMV reverse transcriptase (Promega), 120 nmol dNTPs, and 120 pmol of a 5'[6-carboxyfluorescein (FAM)]-labeled primer (IDT-DNA) were added. Two primers specific to the endogenous beta-globin mRNA in RRL were used in separate reactions: 5′-(FAM)-GGACTCGAAGAACCTCTG (as in ref. [74]) annealed 136 nucleotides downstream of the AUG or 5′-(FAM)-[…] annealed to the end of the 3'-UTR. Primers were extended at 37 °C for 30 min, and then the reaction were extracted in 1:1 phenol:chloroform, supplemented with 1/10 volume of 3 M sodium acetate pH 5.2, and precipitated with 2.5 volumes of 100% ethanol. Pellets were resuspended in 10 μl of deionized formamide (Applied Biosystems) with 1/20 volume of a 35-500 nucleotide orange-dye labeled DNA size standard (MCLab) and loaded onto a 96-well plate. The samples were sent for fragment analysis by capillary electrophoresis to the UMass Chan Medical School Molecular Biology Core Laboratory using an ABI3730XL DNA Fragment Analyzer with capillaries loaded with POP-7 polymer and with an injection voltage of 12.5 kV. Data collection was performed with GeneMapper software (ABI). Data were exported as.fsa files and were analyzed (aligning to ladder and background correction) in GeneMarker 3.0.1 software (SoftGenetics) running in demo mode. Screen captures of traces were taken and traces were integrated using the “Quantification” feature and manually adjusting sliders to include the desired nucleotide range.

Test [3] has as its target Oryctolagus cuniculus (rabbit) 80S ribosome (rabbit (Oryctolagus cuniculus)) (UniProt G1SVW5).
Test [4] has as its target Escherichia coli 70S ribosome (E. coli).
The mark [5] stands for this setting: 30 nM 70S, 50 µM puromycin, 37 °C, read-out: apparent inhibition constant (Ki) of peptidyl transfer.

Like-named read-outs stand apart in the source and are kept apart here. Ends that are not written are not given here.

Turning to `N=C(N)NCCC[C@H](N)C(=O)O` [L-arginine, reference compound], the “effect on peptidyl transfer on 70S” value in the test on E. coli 70S ribosomes (50 µM (Supplementary Fig. 2b)) is “does not affect the peptidyl transfer reaction”. Moreover, in the test on rabbit 80S ribosomes (50 µM), the “effect on peptidyl transfer on rabbit 80S” value is recorded as “does not”. For the same molecule, the “effect on nanoluciferase translation in RRL” value in test [1] (100 μM) is given as “not inhibited”.
In the case of GRGRGRGR [GR4], the Ki in the test on E. coli 70S ribosomes (setting [5]) is > 2000 nM. Besides, in the test with E. coli 70S ribosomes (2 µM), the “effect on peptidyl transfer on 70S” value is on record as “fail to inhibit peptidyl transfer”.
As to `C[C@@H]1C[C@@H]([C@H](O)CC2CC(=O)NC(=O)C2)C(=O)[C@@H](C)C1` [Cycloheximide], in test [2], the “site of ribosome accumulation, toe-printing of polysome fractions” value was “accumulate within the open reading frame”; the “Ratio (START to CDS)” value amounted to 3.435; the “Normalized ratio START/ORF” value came to 1.274. For the same molecule, in test [2] (Fig. 2g), the “normalized ratio START to CDS, MEAN” value is reported as 0.5607. Besides, the “normalized ratio START to CDS, MEAN” value in test [2] (Fig. 2h independent repeat) is 0.326. Further, the IC50 in test [1] lay in the range of 10 to 500 nM.
Take PRPRPRPRPRPRPRPRPRPR [PR10]: in the test with E. coli 70S ribosomes (source data of Fig. 3b, unit printed in the legend b16 only, read-out: Ki, app of fMet-Pmn release from 70S), the Ki is 1050 nM. The “effect on peptidyl transfer on rabbit 80S” value with rabbit 80S ribosomes (2 µM, n=2) is listed as “no inhibition”.
PRPRPRPR [PR4]: the Ki in the test on E. coli 70S ribosomes (setting [5]) is > 2000 nM. In the test with E. coli 70S ribosomes (2 µM), the “effect on peptidyl transfer on 70S” value is on record as “fail to inhibit peptidyl transfer”.
With “GR20 (poly-glycine-arginine, 20 repeats) (peptide)”, in test [3], the IC50 of translation of nanoluciferase mRNA in 33% rabbit reticulocyte lysate came to 425 nM and the IC50 of translation of nanoluciferase mRNA in 50% rabbit reticulocyte lysate worked out at 640 nM. For the same molecule, the apparent inhibition constant (Ki) of peptidyl transfer from [35S]-fMet-tRNAfMet to puromycin on E. coli 70S ribosomes in test [4] came out at 164 nM.
For `COC(=O)C[C@](O)(CCC(C)(C)O)C(=O)O[C@@H]1C(OC)=C[C@]23CCCN2CCc2cc4c(cc2[C@H]13)OCO4` [Harringtonine], in test [2], the “site of ribosome accumulation, toe-printing of polysome fractions” value is “accumulate at the start codon”; the “Ratio (START to CDS)” value worked out at 6.47; the “Normalized ratio START/ORF” value is reported as 2.399. Also, the “normalized ratio START to CDS, MEAN” value in test [2] (Fig. 2g) is 9.437. Besides, the “normalized ratio START to CDS, MEAN” value in test [2] (Fig. 2h independent repeat) worked out at 4.139. Besides, in test [1], the half-inhibitory concentration (IC50) lay in the range of 10 to 500 nM.

B1: GR10 (poly-glycine-arginine, 10 repeats) (peptide)
peptide: GRGRGRGRGRGRGRGRGRGR
As to B1, the apparent inhibition constant (Ki) of peptidyl transfer to puromycin on E. coli 70S ribosomes in test [4] is 600 nM.

B2: PR10 (poly-proline-arginine, 10 repeats) (peptide)
peptide: PRPRPRPRPRPRPRPRPRPR
Take B2: the apparent inhibition constant (Ki) of peptidyl transfer to puromycin on E. coli 70S ribosomes in test [4] came out at 1000 nM.

B3: PR40: poly-PR peptide of 40 repeats (peptide)
peptide: PRPRPRPRPRPRPRPRPRPRPRPRPRPRPRPRPRPRPRPRPRPRPRPRPRPRPRPRPRPRPRPRPRPRPRPRPRPRPRPR
As to B3, the Ki in the test with E. coli 70S ribosomes (setting [5]) and at rabbit 80S ribosomes (rabbit 80S) was ≤ 30 nM each time.

The values above are taken from PMC9120013, “Ribosome inhibition by C9ORF72-ALS/FTD-associated poly-PR and poly-GR proteins revealed by cryo-EM” (Nature Communications, 2022).
